From patent publication US10590140B2, “Tetrahydropyrimidodiazepine and dihydropyridodiazepine compounds for treating pain and pain related conditions” (ESTEVE PHARMACEUTICALS, S.A., priority 2016, dated 2020)

target: human α2δ-1 subunit of Cav2.2 calcium channel (Homo sapiens (Human), UniProt P54289); assay: Binding assay to human α2δ-1 subunit of Cav2.2 calcium channel ([3H]-Gabapentin); settings: binding to α2δ-1, [3H]-Gabapentin; read-out: Ki (nM) α2δ-1
Outline: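 Radioactivity on dried GF/C filters quantified by scintillation after filtration and three cold Tris-HCl (pH 7.4) washes. Incubation ran 60 min at 27° C with [3H]-gabapentin; 10 μM pregabalin gave nonspecific binding.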

Sequence of human α2δ-1 subunit of Cav2.2 calcium channel (P54289 25-1103): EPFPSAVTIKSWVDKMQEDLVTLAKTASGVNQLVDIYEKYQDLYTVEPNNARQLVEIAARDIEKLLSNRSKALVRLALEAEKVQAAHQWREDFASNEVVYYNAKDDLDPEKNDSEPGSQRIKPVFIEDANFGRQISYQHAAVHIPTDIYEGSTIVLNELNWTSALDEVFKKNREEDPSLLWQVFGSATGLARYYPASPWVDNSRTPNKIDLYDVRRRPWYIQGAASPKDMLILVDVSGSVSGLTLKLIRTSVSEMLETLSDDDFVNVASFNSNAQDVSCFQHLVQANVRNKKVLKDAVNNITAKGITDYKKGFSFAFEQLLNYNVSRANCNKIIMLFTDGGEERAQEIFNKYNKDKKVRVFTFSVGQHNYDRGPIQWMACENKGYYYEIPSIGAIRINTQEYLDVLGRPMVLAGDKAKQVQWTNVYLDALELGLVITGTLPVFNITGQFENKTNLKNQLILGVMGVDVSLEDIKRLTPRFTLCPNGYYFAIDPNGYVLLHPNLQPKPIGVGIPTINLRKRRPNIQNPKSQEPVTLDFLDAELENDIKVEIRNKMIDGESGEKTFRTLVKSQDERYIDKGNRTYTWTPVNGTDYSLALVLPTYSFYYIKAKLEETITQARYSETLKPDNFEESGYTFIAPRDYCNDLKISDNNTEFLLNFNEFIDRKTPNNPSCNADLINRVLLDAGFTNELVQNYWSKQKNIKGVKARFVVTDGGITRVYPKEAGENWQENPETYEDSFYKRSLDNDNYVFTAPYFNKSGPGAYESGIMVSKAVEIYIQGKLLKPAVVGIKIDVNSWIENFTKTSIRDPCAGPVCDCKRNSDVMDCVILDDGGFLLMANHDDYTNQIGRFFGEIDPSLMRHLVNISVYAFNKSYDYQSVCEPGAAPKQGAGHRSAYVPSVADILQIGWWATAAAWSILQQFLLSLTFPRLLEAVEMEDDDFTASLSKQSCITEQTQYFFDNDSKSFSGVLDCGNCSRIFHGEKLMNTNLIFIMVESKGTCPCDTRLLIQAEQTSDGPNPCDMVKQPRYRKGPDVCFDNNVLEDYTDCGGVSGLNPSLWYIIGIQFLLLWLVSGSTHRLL

| SMILES | Ki |
| --- | --- |
| CCNc1ncc2c(n1)N(C)CCN(c1cccc(-n3cnc(CN4CCC(c5cccc(O)c5)(N(C)C)CC4)c3)c1)C2=O [Example 296, 6-(3-(4-((4-(dimethylamino)-4-(3-hydroxyphenyl)piperidin-1-yl)methyl)-1H-imidazol-1-yl)phenyl)-2-(ethylamino)-9-methyl-6,7,8,9-tetrahydro-5H-pyrimido[4,5-e][1,4]diazepin-5-one] | 500 to 3000 nM |
| CCNc1ncc2c(n1)N(C)CCN(c1cccc(C3=CCN(C(=O)OC(C)(C)C)CC3)c1)C2=O [Example 233, tert-Butyl 4-(3-(2-(ethylamino)-9-methyl-5-oxo-5,7,8,9-tetrahydro-6H-pyrimido[4,5-e][1,4]diazepin-6-yl)phenyl)-3,6-dihydropyridine-1(2H)-carboxylate] | > 3000 nM |
| CCNc1ncc2c(n1)N(C)CCN(c1cccc(OC(CCN(CCF)C(=O)OC(C)(C)C)c3cccs3)c1)C2=O (centres unmarked) [Example 134, tert-butyl (3-(3-(2-(ethylamino)-9-methyl-5-oxo-5,7,8,9-tetrahydro-6H-pyrimido[4,5-e][1,4]diazepin-6-yl)phenoxy)-3-(thiophen-2-yl)propyl)(2-fluoroethyl)carbamate] | > 3000 nM |
| CCNc1ncc2c(n1)N(C)CCN(c1cccc(CO[C@H](CCN(C)C(=O)OC(C)(C)C)c3ccccc3)c1)C2=O [Example 78, tert-butyl (R)-(3-((3-(2-(ethylamino)-9-methyl-5-oxo-5,7,8,9-tetrahydro-6H-pyrimido[4,5-e][1,4]diazepin-6-yl)benzyl)oxy)-3-phenylpropyl)(methyl) carbamate] | > 3000 nM |
| CCNc1ncc2c(n1)N(C)CCN(c1cccc(OC(C)CN(C)Cc3ccccc3)c1)C2=O (centres unmarked) [Example 262, 6-(3-((1-(benzyl(methyl)amino)propan-2-yl)oxy)phenyl)-2-(ethylamino)-9-methyl-6,7,8,9-tetrahydro-5H-pyrimido[4,5-e][1,4]diazepin-5-one] | 500 to 3000 nM |
| CSc1ncc2c(n1)N(C)CCN(c1cccc(OC(CCN(C)C(=O)OCC[Si](C)(C)C)c3cccs3)c1)C2=O (centres unmarked) [Example 51, 2-(trimethyl-silyl)ethyl methyl(3-(3-(9-methyl-2-(methylthio)-5-oxo-5,7,8,9-tetrahydro-6H-pyrimido[4,5-e][1,4]diazepin-6-yl)phenoxy)-3-(thiophen-2-yl)propyl) carbamate] | > 3000 nM |
| CNCC[C@H](Oc1ccc(CN2CCN(C)c3nc(OC)ncc3C2=O)c(C)c1)c1cccs1 [Example 397, (S)-2-methoxy-9-methyl-6-(2-methyl-4-(3-(methylamino)-1-(thiophen-2-yl)propoxy)benzyl)-6,7,8,9-tetrahydro-5H-pyrimido[4,5-e][1,4]diazepin-5-one] | < 100 nM |
| CNCC(OCc1ccccc1CN1CCN(C)c2nc(C)ncc2C1=O)c1ccccc1 (centres unmarked) [Example 424, 2,9-dimethyl-6-(2-((2-(methylamino)-1-phenylethoxy)methyl)benzyl)-6,7,8,9-tetrahydro-5H-pyrimido[4,5-e][1,4]diazepin-5-one] | > 3000 nM |
| CCNc1ncc2c(n1)N(C)CCN(c1cccc(OC(CN(C)Cc3ccccc3)C(C)C)c1)C2=O (centres unmarked) [Example 267, 6-(3-((1-(benzyl(methyl)amino)-3-methylbutan-2-yl)oxy)phenyl)-2-(ethylamino)-9-methyl-6,7,8,9-tetrahydro-5H-pyrimido[4,5-e][1,4]diazepin-5-one] | 500 to 3000 nM |
| CCNc1ncc2c(n1)N(C)CCN(c1cccc(OC3CCNC3)c1)C2=O (centres unmarked) [Example 175, 2-(ethylamino)-9-methyl-6-(3-(pyrrolidin-3-yloxy)phenyl)-6,7,8,9-tetrahydro-5H-pyrimido[4,5-e][1,4]diazepin-5-one] | 100 to 500 nM |
| COc1ncc2c(n1)N(C)CCN(c1cccc(CO[C@H](CCN(C)C(=O)OC(C)(C)C)c3ccccc3)c1)C2=O [Example 138, tert-Butyl (R)-(3-((3-(2-methoxy-9-methyl-5-oxo-5,7,8,9-tetrahydro-6H-pyrimido[4,5-e][1,4]diazepin-6-yl)benzyl)oxy)-3-phenylpropyl)(methyl)carbamate] | > 3000 nM |
| CCNc1ncc2c(n1)N(C)CCN(c1cccc(O)c1)C2=O [Example 177, 2-(ethylamino)-6-(3-hydroxyphenyl)-9-methyl-6,7,8,9-tetrahydro-5H-pyrimido[4,5-e][1,4]diazepin-5-one] | > 3000 nM |
| CCNc1ncc2c(n1)N(C)CCN(c1cccc(C(=O)O)c1)C2=O [Example 313, 3-(2-(ethylamino)-9-methyl-5-oxo-5,7,8,9-tetrahydro-6H-pyrimido[4,5-e][1,4]diazepin-6-yl)benzoic acid] | > 3000 nM |
| CSc1ncc2c(n1)N(C)CCN(c1cccc(O[C@@H](CCN(C)C(=O)OC(C)(C)C)c3cccs3)c1)C2=O [Example 14, tert-butyl (S)-methyl(3-(3-(9-methyl-2-(methylthio)-5-oxo-5,7,8,9-tetrahydro-6H-pyrimido[4,5-e][1,4]diazepin-6-yl)phenoxy)-3-(thiophen-2-yl)propyl) carbamate] | > 3000 nM |
| CCNc1ncc2c(n1)N(C)CCN(c1cccc(-n3cc(CN(C)C(=O)OC(C)(C)C)nn3)c1)C2=O [Example 116, tert-butyl ((1-(3-(2-(ethylamino)-9-methyl-5-oxo-5,7,8,9-tetrahydro-6H-pyrimido[4,5-e][1,4]diazepin-6-yl)phenyl)-1H-1,2,3-triazol-4-yl)methyl)(methyl) carbamate] | > 3000 nM |
| CCN1CCN(Cc2ccc(O[C@@H](CCNC)c3cccs3)cc2)C(=O)c2cnc(OC)nc21 [Example 395] | 100 to 500 nM |
| CN(CC[C@@H](OCc1cccc(N2CCN(C)c3nc(O)ncc3C2=O)c1)c1ccccc1)C(=O)OC(C)(C)C [Example 140, tert-Butyl (R)-(3-((3-(2-hydroxy-9-methyl-5-oxo-5,7,8,9-tetrahydro-6H-pyrimido[4,5-e][1,4]diazepin-6-yl)benzyl)oxy)-3-phenylpropyl)(methyl)carbamate] | > 3000 nM |
| CCNc1ncc2c(n1)N(C)CCN(c1cccc(-n3cc(CN4CCC(c5ccccc5)(N(C)C)CC4)cn3)c1)C2=O [Example 294, 6-(3-(4-((4-(dimethylamino)-4-phenylpiperidin-1-yl)methyl)-1H-pyrazol-1-yl)phenyl)-2-(ethylamino)-9-methyl-6,7,8,9-tetrahydro-5H-pyrimido[4,5-e] [1,4]diazepin-5-one] | 500 to 3000 nM |
| CCNc1ncc2c(n1)N(C)CCN(c1cccc(CCN(C)Cc3ccccc3)c1)C2=O [Example 269, 6-(3-(2-(benzyl(methyl)amino)ethyl)phenyl)-2-(ethylamino)-9-methyl-6,7,8,9-tetrahydro-5H-pyrimido[4,5-e][1,4]diazepin-5-one] | 100 to 500 nM |
| CCNc1ncc2c(n1)N(C)CCN(c1cccc(C(C)(C)CN(C)C(=O)OC(C)(C)C)c1)C2=O [Example 93, tert-butyl (2-(3-(2-(ethylamino)-9-methyl-5-oxo-5,7,8,9-tetrahydro-6H-pyrimido[4,5-e][1,4]diazepin-6-yl)phenyl)-2-methylpropyl)(methyl) carbamate] | > 3000 nM |
| CCNc1ncc2c(n1)N(C)CCN(c1cccc(OC(CN(C)C(=O)OC(C)(C)C)C(C)C)c1)C2=O (centres unmarked) [Example 75, tert-butyl (2-(3-(2-(ethylamino)-9-methyl-5-oxo-5,7,8,9-tetrahydro-6H-pyrimido[4,5-e][1,4]diazepin-6-yl)phenoxy)-3-methylbutyl) (methyl)carbamate] | > 3000 nM |
| CNc1ncc2c(n1)N(C)CCN(c1cccc(-c3nnc(C)o3)c1)C2=O [Example 100, 9-methyl-6-(3-(5-methyl-1,3,4-oxadiazol-2-yl)phenyl)-2-(methylamino)-6,7,8,9-tetrahydro-5H-pyrimido[4,5-e][1,4]diazepin-5-one] | 100 to 500 nM |
| CNCCC(OCc1ccccc1N1CCN(C)c2nc(SC)ncc2C1=O)c1ccccc1 (centres unmarked) [Example 318, 9-methyl-6-(2-((3-(methylamino)-1-phenylpropoxy)methyl)phenyl)-2-(methylthio)-6,7,8,9-tetrahydro-5H-pyrimido[4,5-e][1,4]diazepin-5-one] | > 3000 nM |
| CSc1ncc2c(n1)N(C)CCN(c1cccc(OCCN(C)C(=O)OC(C)(C)C)c1)C2=O [Example 22, tert-butyl methyl(2-(3-(9-methyl-2-(methylthio)-5-oxo-5,7,8,9-tetrahydro-6H-pyrimido[4,5-e][1,4]diazepin-6-yl)phenoxy)ethyl) carbamate] | > 3000 nM |
| CCNc1ncc2c(n1)N(C)CCN(c1cccc(-c3noc(C)n3)c1)C2=O [Example 108, 2-(ethylamino)-9-methyl-6-(3-(5-methyl-1,2,4-oxadiazol-3-yl)phenyl)-6,7,8,9-tetrahydro-5H-pyrimido[4,5-e][1,4]diazepin-5-one] | 100 to 500 nM |
| CNCCC(OCc1ccccc1CN1CCN(C)c2nc(SC)ncc2C1=O)c1ccccc1 (centres unmarked) [Example 365, 9-methyl-6-(2-((3-(methylamino)-1-phenylpropoxy)methyl)benzyl)-2-(methylthio)-6,7,8,9-tetrahydro-5H-pyrimido[4,5-e][1,4]diazepin-5-one] | > 3000 nM |
| CCNc1ncc2c(n1)N(C)CCN(c1cccc(OC(CCN(C)C(=O)OC(C)(C)C)c3cccnc3)c1)C2=O (centres unmarked) [Example 129, tert-butyl (3-(3-(2-(ethylamino)-9-methyl-5-oxo-5,7,8,9-tetrahydro-6H-pyrimido[4,5-e][1,4]diazepin-6-yl)phenoxy)-3-(pyridin-3-yl)propyl)(methyl) carbamate] | > 3000 nM |
| CNCCC(C)OCc1cccc(N2CCN(C)c3nc(SC)ncc3C2=O)c1 (centres unmarked) [Example 192, 9-methyl-6-(3-(((4-(methylamino)butan-2-yl)oxy)methyl)phenyl)-2-(methylthio)-6,7,8,9-tetrahydro-5H-pyrimido[4,5-e][1,4]diazepin-5-one] | > 3000 nM |
| COc1ncc2c(n1)N(C)CCN(c1cccc(COC(CCN(C)C(=O)OC(C)(C)C)c3cccs3)c1)C2=O (centres unmarked) [Example 139, tert-butyl (3-((3-(2-methoxy-9-methyl-5-oxo-5,7,8,9-tetrahydro-6H-pyrimido[4,5-e][1,4]diazepin-6-yl)benzyl)oxy)-3-(thiophen-2-yl)propyl)(methyl)carbamate] | > 3000 nM |
